≈ marks a conversion by molar mass, not a printed value.
How the values were obtained:
Assay type in all cases: cell-based
[1] = system: Candida albican ATCC 62342; assay: In vitro antifungal activity (MIC80), Candida albican ATCC 62342; details: Candida, ATCC62342; Table 2, 62342; read-out: Minimal inhibitory concentration (MIC80)
Experimental: (§1) In vitro antifungal activities of the inventive antifungal compounds were evaluated using test strains including Candida albican (ATCC 90873, 204276, 62342, 64124, 64550, 96901, MYA-573, MYA-574, MYA-575, MYA-576, MYA-1003) and Aspergillus fumigatus (ATCC 16424). Test samples and positive control samples were prepared by dissolving the inventive compounds and comparative compounds, i.e., amphotericin B, fluconazole and itraconazole, in DMSO, respectively, and each successively diluted with medium to obtain test and positive control solutions having test compound concentrations of 0.125 μg/ml to a maximum concentration not generating turbidity. Minimal inhibitory concentration (MIC80) of each compound was determined as the lowest concentration of the test compounds required to reduce growth by 80% relative to a control strain not treated.
(§2) 1) Test strain: Candida albican ATCC 90873, 204276, 62342, 64124, 64550, 96901, MYA-573, MYA-574, MYA-575, MYA-576, MYA-1003, and Aspergillus fumigatus ATCC 16424 were commercially obtained from The American Type Culture Collection (ATCC) and subcultured in CHEMON Co. Ltd. (amphotericin B was commercially purchased from Sigma, and fluconazole and itraconazole were prepared according to methods described in British Patent No. 2,099,818; and U.S. Pat. No. 4,267,179, respectively).
(§3) 2) Medium and culture condition: Candida albican was cultured in Sabourad Dextrose Agar, YM Agar or Potato Dextrose Agar according to ATCC information at a temperature of 37° C., 35° C., 30° C. or 25° C. Aspergillus fumigatus was cultured in Malt Extract Agar or Potato Dextrose Agar at a temperature ranging from 24 to 27° C.
(§4) 3) Preparation of test samples: the inventive compounds and comparative compounds were each diluted with DMSO to obtain 1 to 2 ml of a test sample in a concentration of 100-folds of the determining maximum concentration (256 μg/ml).
(§5) The test samples were each successively diluted with RPMI 1640 to obtain test solutions having concentrations of […] in a 12×75 mm sterilized disposable culture tube. The final concentration of DMSO was adjusted to […] (v/v).
(§6) 5) Preparation of strain solution and inoculation
(§7) Candida albican strains were each subcultured in Sabourad Dextrose Agar, YM Agar or Potato Dextrose Agar medium at 35° C. for 2˜3 days. In the case of yeasts, a single colony was taken from prominent colonies and suspended in 0.85% sterile physiological saline solution and the turbidity of the suspension was adjusted to 80˜82% at 530 nm, and then diluted 50-fold with RPMI 1640 medium to 1.0×10^3˜5.0×10^3 CFU/ml. The turbidity of fungi was adjusted to 80˜82% and the suspension was diluted 50-fold to […]. Aspergillus fumigatus strains were subcultured in Malt Extract Agar for 7˜10 days, and a single colony was taken from prominent colonies and suspended in 0.85% sterile physiological saline solution and the suspension was adjusted to 0.108 at 530 nm, and then diluted 1000-fold with RPMI 1640 medium to 0.4×10^2˜5×10^4 CFU/ml. The turbidity of fungi was adjusted to 80˜82% and the suspension was diluted 50-fold to 0.4102˜0.5104 CFU/ml.
(§8) The strain solutions thus obtained were each seeded into a sterilized 96-well microplate, 0.1 ml of each test solution were added thereto, and […] of alamarblue was treated to each well (Biosource, #DAL1100). This procedure was repeated 2 times.
(§9) Minimal inhibitory concentration (MIC80) of each compound was determined as the lowest concentration of the test compounds required to reduce growth by 80% relative to a control strain not treated.

[2] = system: Candida albican ATCC MYA-1003; assay: In vitro antifungal activity (MIC80), Candida albican ATCC MYA-1003; details: Candida; Table 2, MYA 1003; read-out: Minimal inhibitory concentration (MIC80)
Experimental: as §1, §2, §3, §4, §5, §6, §7, §8, §9

[3] = system: Candida albican ATCC 96901; assay: In vitro antifungal activity (MIC80), Candida albican ATCC 96901; details: Candida, ATCC96901; Table 2, ATCC 96901; read-out: Minimal inhibitory concentration (MIC80)
Experimental: as §1, §2, §3, §4, §5, §6, §7, §8, §9

[4] = system: Candida albican ATCC 64124; assay: In vitro antifungal activity (MIC80), Candida albican ATCC 64124; details: Candida, ATCC64124; Table 2, 64124; read-out: Minimal inhibitory concentration (MIC80)
Experimental: as §1, §2, §3, §4, §5, §6, §7, §8, §9

[5] = system: Candida albican ATCC MYA-575; assay: In vitro antifungal activity (MIC80), Candida albican ATCC MYA-575; details: Candida; Table 2, MYA 575; read-out: Minimal inhibitory concentration (MIC80)
Experimental: as §1, §2, §3, §4, §5, §6, §7, §8, §9

[6] = system: Candida albican ATCC 90873; assay: In vitro antifungal activity (MIC80), Candida albican ATCC 90873; details: Candida, ATCC90873; Table 2, ATCC 90873; read-out: Minimal inhibitory concentration (MIC80)
Experimental: as §1, §2, §3, §4, §5, §6, §7, §8, §9

[7] = system: Candida albican ATCC MYA-576; assay: In vitro antifungal activity (MIC80), Candida albican ATCC MYA-576; details: Candida; Table 2, MYA 576; read-out: Minimal inhibitory concentration (MIC80)
Experimental: as §1, §2, §3, §4, §5, §6, §7, §8, §9

[8] = system: Candida albican ATCC 64550; assay: In vitro antifungal activity (MIC80), Candida albican ATCC 64550; details: Candida, ATCC64550; Table 2, 64550; read-out: Minimal inhibitory concentration (MIC80)
Experimental: as §1, §2, §3, §4, §5, §6, §7, §8, §9

[9] = system: Candida albican ATCC MYA-573; assay: In vitro antifungal activity (MIC80), Candida albican ATCC MYA-573; details: Candida; Table 2, MYA 573; read-out: Minimal inhibitory concentration (MIC80)
Experimental: as §1, §2, §3, §4, §5, §6, §7, §8, §9

[10] = system: Candida albican ATCC MYA-574; assay: In vitro antifungal activity (MIC80), Candida albican ATCC MYA-574; details: Candida; Table 2, MYA 574; read-out: Minimal inhibitory concentration (MIC80)
Experimental: as §1, §2, §3, §4, §5, §6, §7, §8, §9

Structure (SMILES)	MIC80 [1] [µg/mL]	MIC80 [2] [µg/mL]	MIC80 [3] [µg/mL]	MIC80 [4] [µg/mL]	MIC80 [5] [µg/mL]	MIC80 [6] [µg/mL]	MIC80 [7] [µg/mL]	MIC80 [8] [µg/mL]	MIC80 [9] [µg/mL]	MIC80 [10] [µg/mL]
C[C@@H](N1CCN(c2cccc(OCC3CC3)n2)CC1)[C@](O)(Cn1cncn1)c1ccc(F)cc1F [Example 21, (2R,3R)-3-(4-(6-(cyclopropylmethoxy)pyridin-2-yl)piperazin-1-yl)-2-(2,4-difluorophenyl)-1-(1H-1,2,4-triazol-1-yl)butan-2-ol]	8 (≈ 16.5 µM)	> 128	> 128	> 128	0.25 (≈ 0.516 µM)	0.125 (≈ 0.258 µM)	0.25 (≈ 0.516 µM)	8 (≈ 16.5 µM)	8 (≈ 16.5 µM)	128 (≈ 264 µM)
C[C@@H](N1CCN(c2cccc(N(C)CCc3cccs3)n2)CC1)[C@](O)(Cn1cncn1)c1ccc(F)cc1F [Example 28, (2R,3R)-2-(2,4-difluorophenyl)-3-(4-(6-(methyl(2-(thiophen-2-yl)ethyl)amino)pyridin-2-yl)piperazin-1-yl)-1-(1H-1,2,4-triazol-1-yl)butan-2-ol]	> 128	> 128	> 128	> 128	1 (≈ 1.81 µM)	0.25 (≈ 0.452 µM)	1 (≈ 1.81 µM)	> 128	> 128	> 128
CCCCOc1ccc(N2CCN([C@H](C)[C@](O)(Cn3cncn3)c3ccc(F)cc3F)CC2)cn1 [Example 32, (2R,3R)-3-(4-(6-(butyloxy)pyridin-3-yl)piperazin-1-yl)-2-(2,4-difluorophenyl)-1-(1H-1,2,4-triazol-1-yl)butan-2-ol]	1 (≈ 2.06 µM)	> 128	8 (≈ 16.4 µM)	4 (≈ 8.22 µM)	0.5 (≈ 1.03 µM)	0.125 (≈ 0.257 µM)	0.125 (≈ 0.257 µM)	1 (≈ 2.06 µM)	1 (≈ 2.06 µM)	4 (≈ 8.22 µM)

Next, values leading:

MIC80 [1] [µg/mL]	MIC80 [2] [µg/mL]	MIC80 [3] [µg/mL]	MIC80 [4] [µg/mL]	MIC80 [5] [µg/mL]	MIC80 [6] [µg/mL]	MIC80 [7] [µg/mL]	MIC80 [8] [µg/mL]	MIC80 [9] [µg/mL]	MIC80 [10] [µg/mL]	Structure (SMILES)
4 (≈ 7.36 µM)	> 128	> 128	> 128	0.5 (≈ 0.92 µM)	0.25 (≈ 0.46 µM)	0.5 (≈ 0.92 µM)	8 (≈ 14.7 µM)	8 (≈ 14.7 µM)	16 (≈ 29.4 µM)	C[C@@H](N1CCN(c2cccc(OCCN3CCOCC3)n2)CC1)[C@](O)(Cn1cncn1)c1ccc(F)cc1F [Example 26, (2R,3R)-2-(2,4-difluorophenyl)-3-(4-(6-(2-morpholinoethoxy)pyridin-2-yl)piperazin-1-yl)-1-(1H-1,2,4-triazol-1-yl)butan-2-ol]
0.125 (≈ 0.256 µM)	> 128	2 (≈ 4.09 µM)	2 (≈ 4.09 µM)	0.125 (≈ 0.256 µM)	0.125 (≈ 0.256 µM)	0.125 (≈ 0.256 µM)	0.5 (≈ 1.02 µM)	0.25 (≈ 0.511 µM)	0.5 (≈ 1.02 µM)	C[C@@H](N1CCN(c2nc3cc(Cl)ccc3o2)CC1)[C@](O)(Cn1cncn1)c1ccc(F)cc1F [Example 5, (2R,3R)-3-(4-(5-chlorobenzooxazol-2-yl)piperazin-1-yl)-2-(2,4-difluorophenyl)-1-(1H-1,2,4-triazol-1-yl)butan-2-ol]
0.125 (≈ 0.226 µM)	> 128	4 (≈ 7.22 µM)	4 (≈ 7.22 µM)	0.125 (≈ 0.226 µM)	0.125 (≈ 0.226 µM)	0.125 (≈ 0.226 µM)	0.5 (≈ 0.903 µM)	0.5 (≈ 0.903 µM)	0.5 (≈ 0.903 µM)	C[C@@H](N1CCN(c2nc3ccc(N4CCCCC4)cc3s2)CC1)[C@](O)(Cn1cncn1)c1ccc(F)cc1F [Example 10, (2R,3R)-2-(2,4-difluorophenyl)-3-(4-(6-(piperidin-1-yl)benzothiazol-2-yl)piperazin-1-yl)-1-(1H-1,2,4-triazol-1-yl)butan-2-ol]
0.25 (≈ 0.534 µM)	> 128	16 (≈ 34.2 µM)	8 (≈ 17.1 µM)	0.125 (≈ 0.267 µM)	0.125 (≈ 0.267 µM)	0.125 (≈ 0.267 µM)	2 (≈ 4.27 µM)	0.5 (≈ 1.07 µM)	1 (≈ 2.13 µM)	C[C@@H](N1CCCN(c2nc3ccccc3o2)CC1)[C@](O)(Cn1cncn1)c1ccc(F)cc1F [Example 15, (2R,3R)-3-(4-(benzooxazol-2-yl)-1,4-diazepan-1-yl)-2-(2,4-difluorophenyl)-1-(1H-1,2,4-triazol-1-yl)butan-2-ol]

From patent publication US20100144712A1 (priority 2007, published 2010)
